The values that follow come from patent publication US8129417B2, “Substituted octahydrocyclopenta[C]pyrrol-4-amines as calcium channel blockers” (Abbott Laboratories, priority 2008, dated 2012).

Sequence of human Cav2.2 (Q00975 whole entry): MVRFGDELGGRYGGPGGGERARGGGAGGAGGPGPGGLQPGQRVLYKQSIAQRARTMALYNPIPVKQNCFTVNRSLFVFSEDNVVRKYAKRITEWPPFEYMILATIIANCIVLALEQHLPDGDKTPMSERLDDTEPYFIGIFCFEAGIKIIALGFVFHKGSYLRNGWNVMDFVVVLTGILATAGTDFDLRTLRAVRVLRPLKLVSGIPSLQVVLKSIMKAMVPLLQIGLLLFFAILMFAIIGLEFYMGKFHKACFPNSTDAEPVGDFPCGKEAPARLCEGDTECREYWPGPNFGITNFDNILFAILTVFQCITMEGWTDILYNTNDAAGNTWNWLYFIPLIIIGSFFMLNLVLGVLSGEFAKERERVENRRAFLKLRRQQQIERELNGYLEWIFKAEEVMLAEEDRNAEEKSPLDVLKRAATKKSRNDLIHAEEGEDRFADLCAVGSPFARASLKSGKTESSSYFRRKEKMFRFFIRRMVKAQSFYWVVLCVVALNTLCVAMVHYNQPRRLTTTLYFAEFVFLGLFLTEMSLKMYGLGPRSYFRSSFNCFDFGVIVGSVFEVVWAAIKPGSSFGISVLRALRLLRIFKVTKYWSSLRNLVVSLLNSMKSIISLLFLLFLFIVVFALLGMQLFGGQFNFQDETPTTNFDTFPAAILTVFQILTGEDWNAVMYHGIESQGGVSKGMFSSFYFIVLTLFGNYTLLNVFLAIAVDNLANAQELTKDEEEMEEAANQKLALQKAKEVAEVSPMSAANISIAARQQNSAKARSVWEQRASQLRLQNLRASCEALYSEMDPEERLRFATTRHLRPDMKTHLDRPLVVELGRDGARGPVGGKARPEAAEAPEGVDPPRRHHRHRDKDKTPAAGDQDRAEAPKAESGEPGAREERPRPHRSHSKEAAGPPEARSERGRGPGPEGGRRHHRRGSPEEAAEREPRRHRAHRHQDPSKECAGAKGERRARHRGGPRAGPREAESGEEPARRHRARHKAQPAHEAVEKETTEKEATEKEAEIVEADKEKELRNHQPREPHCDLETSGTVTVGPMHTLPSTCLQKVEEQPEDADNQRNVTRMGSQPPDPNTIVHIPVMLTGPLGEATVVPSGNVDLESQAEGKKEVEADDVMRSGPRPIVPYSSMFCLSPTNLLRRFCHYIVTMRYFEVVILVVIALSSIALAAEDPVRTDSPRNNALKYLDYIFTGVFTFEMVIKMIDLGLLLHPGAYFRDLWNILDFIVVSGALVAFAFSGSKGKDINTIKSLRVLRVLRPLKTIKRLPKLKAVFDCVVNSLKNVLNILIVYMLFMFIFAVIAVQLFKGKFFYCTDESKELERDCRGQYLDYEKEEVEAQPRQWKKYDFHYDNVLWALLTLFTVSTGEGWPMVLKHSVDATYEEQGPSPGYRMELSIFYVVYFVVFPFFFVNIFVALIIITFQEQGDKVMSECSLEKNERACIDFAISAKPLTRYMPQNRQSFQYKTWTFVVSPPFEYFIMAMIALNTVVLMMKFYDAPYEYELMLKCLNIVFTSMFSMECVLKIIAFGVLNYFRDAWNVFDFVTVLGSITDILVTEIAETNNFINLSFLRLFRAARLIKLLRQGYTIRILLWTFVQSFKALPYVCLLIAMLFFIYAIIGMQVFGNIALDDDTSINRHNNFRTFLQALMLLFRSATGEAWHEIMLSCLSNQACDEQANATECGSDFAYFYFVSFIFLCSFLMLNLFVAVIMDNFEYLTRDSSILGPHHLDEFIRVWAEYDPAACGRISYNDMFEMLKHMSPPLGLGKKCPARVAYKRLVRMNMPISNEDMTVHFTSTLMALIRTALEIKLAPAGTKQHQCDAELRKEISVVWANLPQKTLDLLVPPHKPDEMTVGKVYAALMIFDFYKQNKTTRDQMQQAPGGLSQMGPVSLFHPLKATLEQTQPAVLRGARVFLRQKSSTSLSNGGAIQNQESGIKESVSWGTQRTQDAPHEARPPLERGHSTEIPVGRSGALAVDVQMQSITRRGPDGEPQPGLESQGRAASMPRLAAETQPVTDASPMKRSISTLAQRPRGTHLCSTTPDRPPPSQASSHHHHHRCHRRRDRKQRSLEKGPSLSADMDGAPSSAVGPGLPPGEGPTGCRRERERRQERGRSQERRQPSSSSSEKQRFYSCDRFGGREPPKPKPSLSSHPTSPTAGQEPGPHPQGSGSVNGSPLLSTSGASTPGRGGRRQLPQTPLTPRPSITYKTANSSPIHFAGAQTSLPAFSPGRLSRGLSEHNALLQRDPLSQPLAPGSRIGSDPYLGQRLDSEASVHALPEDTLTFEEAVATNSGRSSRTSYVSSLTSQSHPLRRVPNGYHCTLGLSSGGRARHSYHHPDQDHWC
Sequence of human Cav2.2 (P54289 25-946 partner limits assumed): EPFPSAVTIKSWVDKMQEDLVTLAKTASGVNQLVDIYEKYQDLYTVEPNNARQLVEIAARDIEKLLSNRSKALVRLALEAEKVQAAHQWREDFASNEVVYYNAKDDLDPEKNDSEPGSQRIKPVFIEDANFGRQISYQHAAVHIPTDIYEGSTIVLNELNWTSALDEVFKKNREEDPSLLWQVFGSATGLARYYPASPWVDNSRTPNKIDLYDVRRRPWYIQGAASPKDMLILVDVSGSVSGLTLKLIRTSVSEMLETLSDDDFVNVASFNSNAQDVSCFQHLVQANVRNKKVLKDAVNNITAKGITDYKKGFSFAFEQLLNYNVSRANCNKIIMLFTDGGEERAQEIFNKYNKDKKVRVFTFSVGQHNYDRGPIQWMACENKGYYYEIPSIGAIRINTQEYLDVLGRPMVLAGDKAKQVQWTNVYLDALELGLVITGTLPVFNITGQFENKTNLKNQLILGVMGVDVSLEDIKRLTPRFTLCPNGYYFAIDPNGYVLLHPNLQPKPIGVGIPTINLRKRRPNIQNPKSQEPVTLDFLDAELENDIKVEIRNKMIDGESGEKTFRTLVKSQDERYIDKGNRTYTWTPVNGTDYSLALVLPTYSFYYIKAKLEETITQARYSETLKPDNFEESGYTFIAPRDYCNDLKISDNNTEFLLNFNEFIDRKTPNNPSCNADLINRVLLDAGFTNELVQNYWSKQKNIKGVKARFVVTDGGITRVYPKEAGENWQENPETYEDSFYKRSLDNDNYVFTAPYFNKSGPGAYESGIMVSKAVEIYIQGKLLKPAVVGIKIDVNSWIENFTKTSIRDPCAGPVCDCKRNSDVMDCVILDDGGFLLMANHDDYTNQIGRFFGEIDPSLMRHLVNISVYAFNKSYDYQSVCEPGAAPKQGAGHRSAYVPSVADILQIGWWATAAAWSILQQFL
Sequence of human Cav2.2 (P54289 947-1103 partner limits assumed): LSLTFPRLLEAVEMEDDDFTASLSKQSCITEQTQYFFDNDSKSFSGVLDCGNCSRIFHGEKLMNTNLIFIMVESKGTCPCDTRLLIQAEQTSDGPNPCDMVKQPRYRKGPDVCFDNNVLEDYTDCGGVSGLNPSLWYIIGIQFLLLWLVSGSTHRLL
Sequence of human Cav2.2 (P54284 whole entry partner): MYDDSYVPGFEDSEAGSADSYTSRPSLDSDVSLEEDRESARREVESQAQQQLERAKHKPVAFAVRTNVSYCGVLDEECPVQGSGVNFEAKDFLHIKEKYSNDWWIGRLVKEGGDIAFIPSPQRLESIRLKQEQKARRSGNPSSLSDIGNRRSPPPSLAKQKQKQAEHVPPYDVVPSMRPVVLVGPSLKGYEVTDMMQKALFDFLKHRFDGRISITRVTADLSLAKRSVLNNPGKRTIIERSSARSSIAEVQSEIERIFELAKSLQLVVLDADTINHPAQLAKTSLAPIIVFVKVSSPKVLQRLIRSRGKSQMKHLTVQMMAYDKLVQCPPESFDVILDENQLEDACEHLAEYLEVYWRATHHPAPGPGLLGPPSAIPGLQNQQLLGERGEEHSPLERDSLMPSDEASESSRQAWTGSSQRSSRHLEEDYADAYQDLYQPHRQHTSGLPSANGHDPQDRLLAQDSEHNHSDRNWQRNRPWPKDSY

The first assay addresses human Cav2.2 (Homo sapiens, UniProt Q00975). As to the kind of experiment: Assessment of calcium channel activity using FLIPR (Ca2+ influx in IMR32 cells). The format is cell-based. The following applies: 3 minute pre-incubation with compound (*), 2 μM nifedipine, depolarized with 80 mM KCl. In a few lines:
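IMR32 neuroblastoma cells seeded at 1-1.2×10^5 cells/well and grown 48 h at 37 °C before FLIPR Ca2+ influx read. Percent inhibition at each concentration vs no-inhibitor activity; IC50 by non-linear sigmoidal dose-response fit.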
For “N-[(3aS*,4R*,6aR*)-2-benzyloctahydrocyclopenta[c]pyrrol-4-yl]-2-cyclohexyl-2-phenylacetamide [Example 4]”, the IC50 amounted to 3500 nM.

Still in this assay, the particulars now being: 60 minute pre-incubation with compound, 2 μM nifedipine, depolarized with 80 mM KCl.
Take `O=C(N[C@H]1CC[C@H]2CN(Cc3cccc(C(F)(F)F)c3)C[C@H]21)C(C1CCCCC1)C1CCCCC1` [Example 54, 2,2-dicyclohexyl-N-{(3aS,4S,6aR)-2-[3-(trifluoromethyl)benzyl]octahydrocyclopenta[c]pyrrol-4-yl}acetamide]: the IC50 stood at 500 nM.
Take `CCC[C@H](NC)C(=O)N[C@H]1CC[C@@H]2CN(S(=O)(=O)c3ccc(F)c(Cl)c3)C[C@@H]21` [Example 534, N^1-{(3aR,4S,6aS)-2-[(3-chloro-4-fluorophenyl)sulfonyl]octahydrocyclopenta[c]pyrrol-4-yl}-N^2-methyl-L-norvalinamide]: the IC50 was found to be 6380 nM.
Still for that read-out and setting: the figure for `CCC[C@H](NC)C(=O)N[C@H]1CC[C@@H]2CN(S(=O)(=O)c3ccc(F)cc3Cl)C[C@@H]21` [Example 539, N^1-{(3aR,4S,6aS)-2-[(2-chloro-4-fluorophenyl)sulfonyl]octahydrocyclopenta[c]pyrrol-4-yl}-N^2-methyl-L-norvalinamide] is 4390 nM; for `CCC[C@H](NC)C(=O)N[C@H]1CC[C@@H]2CN(S(=O)(=O)c3cccc4ccccc34)C[C@@H]21` [Example 540, N^2-methyl-N^1-[(3aR,4S,6aS)-2-(1-naphthylsulfonyl)octahydrocyclopenta[c]pyrrol-4-yl]-L-norvalinamide] it is 1670 nM.
For the compound `CCC[C@H](NC)C(=O)N[C@H]1CC[C@@H]2CN(S(=O)(=O)c3ccc(Br)c(C(F)(F)F)c3)C[C@@H]21` [Example 541, N^1-((3aR,4S,6aS)-2-{[4-bromo-3-(trifluoromethyl)phenyl]sulfonyl}octahydrocyclopenta[c]pyrrol-4-yl)-N^2-methyl-L-norvalinamide], the IC50 amounted to 2570 nM.
For the compound `CCC[C@H](NC)C(=O)N[C@H]1CC[C@@H]2CN(S(=O)(=O)c3ccc(Cl)c(Cl)c3)C[C@@H]21` [Example 542, N^1-{(3aR,4S,6aS)-2-[(3,4-dichlorophenyl)sulfonyl]octahydrocyclopenta[c]pyrrol-4-yl}-N^2-methyl-L-norvalinamide], the IC50 was determined as 2360 nM.
Still for that read-out and setting: the figure for `CCC[C@H](NC)C(=O)N[C@H]1CC[C@@H]2CN(S(=O)(=O)c3ccc(-c4ccccc4)cc3)C[C@@H]21` [Example 544, N^1-[(3aR,4S,6aS)-2-(1,1′-biphenyl-4-ylsulfonyl)octahydrocyclopenta[c]pyrrol-4-yl]-N^2-methyl-L-norvalinamide] is 2150 nM; for `CCC[C@H](NC)C(=O)N[C@H]1CC[C@@H]2CN(S(=O)(=O)c3cccc(C#N)c3)C[C@@H]21` [Example 546, N^1-{(3aR,4S,6aS)-2-[(3-cyanophenyl)sulfonyl]octahydrocyclopenta[c]pyrrol-4-yl}-N^2-methyl-L-norvalinamide] it is 6320 nM.
In the case of `CCC[C@H](NC)C(=O)N[C@H]1CC[C@@H]2CN(S(=O)(=O)c3cccc(Cl)c3Cl)C[C@@H]21` [Example 548, N^1-{(3aR,4S,6aS)-2-[(2,3-dichlorophenyl)sulfonyl]octahydrocyclopenta[c]pyrrol-4-yl}-N^2-methyl-L-norvalinamide], the IC50 turned out to be 1050 nM.
As to `CCC[C@H](NC)C(=O)N[C@H]1CC[C@@H]2CN(S(=O)(=O)c3ccccc3C(F)(F)F)C[C@@H]21` [Example 550, N^2-methyl-N^1-((3aR,4S,6aS)-2-{[2-(trifluoromethyl)phenyl]sulfonyl}octahydrocyclopenta[c]pyrrol-4-yl)-L-norvalinamide], the IC50 worked out at 2570 nM.
Turning to `CCC[C@H](NC)C(=O)N[C@H]1CC[C@@H]2CN(S(=O)(=O)c3cccc(Br)c3)C[C@@H]21` [Example 551, N^1-{(3aR,4S,6aS)-2-[(3-bromophenyl)sulfonyl]octahydrocyclopenta[c]pyrrol-4-yl}-N^2-methyl-L-norvalinamide], the IC50 amounted to 2490 nM.
On the same count and under the same terms, the figure for `CCC[C@H](NC)C(=O)N[C@H]1CC[C@@H]2CN(S(=O)(=O)c3ccc(C(F)(F)F)cc3Cl)C[C@@H]21` [Example 552, N^1-((3aR,4S,6aS)-2-{[2-chloro-4-(trifluoromethyl)phenyl]sulfonyl}octahydrocyclopenta[c]pyrrol-4-yl)-N^2-methyl-L-norvalinamide] is 780 nM; for `CCC[C@H](NC)C(=O)N[C@H]1CC[C@@H]2CN(S(=O)(=O)c3cc(C(F)(F)F)ccc3Cl)C[C@@H]21` [Example 553, N^1-((3aR,4S,6aS)-2-{[2-chloro-5-(trifluoromethyl)phenyl]sulfonyl}octahydrocyclopenta[c]pyrrol-4-yl)-N^2-methyl-L-norvalinamide] it is 1940 nM.
The same measure, in the same setting: the same measure for `CC(C)N([C@H]1CC[C@@H]2CN(Cc3ccccc3)C[C@@H]21)S(=O)(=O)c1cccc(C(F)(F)F)c1` [Example 555, N-[(3aR,4S,6aS)-2-benzyloctahydrocyclopenta[c]pyrrol-4-yl]-N-isopropyl-3-(trifluoromethyl)benzenesulfonamide]: 2510 nM; for `O=S(=O)(N[C@H]1CC[C@@H]2CN(Cc3ccccc3)C[C@@H]21)c1cccc(C(F)(F)F)c1` [Example 556, N-[(3aR,4S,6aS)-2-benzyloctahydrocyclopenta[c]pyrrol-4-yl]-3-(trifluoromethyl)benzenesulfonamide]: 2580 nM.
`CN[C@@H](CC(C)C)C(=O)N1C[C@H]2CC[C@H](N(C(C)C)S(=O)(=O)c3cccc(C(F)(F)F)c3)[C@H]2C1` [Example 557, N-isopropyl-N-[(3aR,4S,6aS)-2-(N-methyl-L-leucyl)octahydrocyclopenta[c]pyrrol-4-yl]-3-(trifluoromethyl)benzenesulfonamide]: the IC50 is 1140 nM.
On to `CN[C@@H](CC(C)C)C(=O)N1C[C@H]2CC[C@H](NS(=O)(=O)c3cccc(C(F)(F)F)c3)[C@H]2C1` [Example 558, N-[(3aR,4S,6aS)-2-(N-methyl-L-leucyl)octahydrocyclopenta[c]pyrrol-4-yl]-3-(trifluoromethyl)benzenesulfonamide], for which the IC50 is 4880 nM.
The same measure, in the same setting: the same measure for `CNC(CC(C)C)C(=O)N1CC2CCC(N(C3CC3)S(=O)(=O)c3cccc(C(F)(F)F)c3)C2C1` [Example 559, N-cyclopropyl-N-[(3aS*,4S*,6aR*)-[2-(N-methyl-L-leucyl)octahydrocyclopenta[c]pyrrol-4-yl]-3-(trifluoromethyl)benzenesulfonamide]: 1680 nM.
For “N-((3aR,4S,6aS)-2-{[2-chloro-4-(trifluoromethyl)phenyl]sulfonyl}octahydrocyclopenta[c]pyrrol-4-yl)-N-methyl-L-phenylalaninamide [Example 432]”, the IC50 amounted to 1670 nM.
Same read-out and setting: the same measure for “N-methyl-N-((3aR,4S,6aS)-2-{[4-(trifluoromethyl)phenyl]sulfonyl}octahydrocyclopenta[c]pyrrol-4-yl)-L-phenylalaninamide [Example 430]”: 1750 nM.

Another assay relates to Sprague Dawley rats. As to the kind of experiment: Capsaicin induced secondary mechanical hyperalgesia model. The format is in vivo. Particulars: po, 1 h, read-out: % inhibition @ 30 mg/kg p.o., 60 minutes before testing, secondary mechanical hyperalgesia 180 minutes after intraplantar capsaicin, rat. The protocol: (ii) In Vivo Data—Capsaicin Induced Secondary Mechanical Hyperalgesia Model:
Sprague Dawley rats were briefly restrained, and capsaicin was administered at 10 μg in 10 μL of vehicle by intraplantar injection into the center of the right hind paw. Secondary mechanical hyperalgesia (SMH) was measured at the heel away from the site of injection 180 minutes following capsaicin exposure. Compounds and gabapentin (positive control), were administered p.o. 60 minutes before testing (2 hours after capsaicin) or i.p. 30 minutes before testing (2.5 hours after capsaicin). SMH was measured using calibrated von Frey filaments (Stoelting, Woodale, Ill.). Following the 1 hour habituation in the testing room, rats were moved to individual plexiglass chambers that sit on top of a wire mesh to allow for access for stimulation of the plantar surface of the hind paws. Rats were allowed to acclimate to the new chambers for 15 minutes before the onset of testing. The paw withdrawal threshold was determined by increasing and decreasing stimulus intensity (force: g) and calculated using Dixon's up-down method (Chaplan, S. R.; Bach, F. W.; Pogrel, J. W.; Chung, J. M.; Yaksh, T. L.; Quantitative assessment of tactile allodynia in the rat paw. J. Neuroscience Methods 1994, 53(1), 55-63.). The filaments (maximum force of 15.0 g) were held in place for 8 seconds or until there was a withdrawal response from the mechanical stimulation.
On to `O=C(N[C@H]1CC[C@H]2CN(Cc3cccc(C(F)(F)F)c3)C[C@H]21)C(C1CCCCC1)C1CCCCC1` [Example 54, 2,2-dicyclohexyl-N-{(3aS,4S,6aR)-2-[3-(trifluoromethyl)benzyl]octahydrocyclopenta[c]pyrrol-4-yl}acetamide], for which the inhibition in vivo at 30 mg/kg worked out at 38%.
Still for that read-out and setting: the same measure for `CC(C)C[C@H](NS(C)(=O)=O)C(=O)N[C@@H]1CC[C@H]2CN(Cc3cccc(C(F)(F)F)c3)C[C@H]21` [Example 170, N^2-(methylsulfonyl)-N^1-{(3aS,4R,6aR)-2-[3-(trifluoromethyl)benzyl]octahydrocyclopenta[c]pyrrol-4-yl}-L-leucinamide]: 57%.
In the case of `CC(C)C[C@H](NS(=O)(=O)C1CC1)C(=O)N[C@@H]1CC[C@H]2CN(Cc3cccc(C(F)(F)F)c3)C[C@H]21` [Example 172, N^2-(cyclopropylsulfonyl)-N^1-{(3aS,4R,6aR)-2-[3-(trifluoromethyl)benzyl]octahydrocyclopenta[c]pyrrol-4-yl}-L-leucinamide], the inhibition in vivo at 30 mg/kg was 85%.
Consider `CN[C@@H](CC(C)C)C(=O)N[C@@H]1CC[C@H]2CN(S(=O)(=O)c3ccc(C(F)(F)F)cc3)C[C@H]21` [Example 183, N^2-methyl-N^1-((3aS,4R,6aR)-2-{[4-(trifluoromethyl)phenyl]sulfonyl}octahydrocyclopenta[c]pyrrol-4-yl)-L-leucinamide], for which the inhibition in vivo at 30 mg/kg worked out at 78%.
Regarding `CCC[C@H](NC)C(=O)N[C@H]1CC[C@@H]2CN(S(=O)(=O)c3ccc(C(F)(F)F)cc3)C[C@@H]21` [Example 405, N^2-methyl-N^1-((3aR,4S,6aS)-2-{[4-(trifluoromethyl)phenyl]sulfonyl}octahydrocyclopenta[c]pyrrol-4-yl)-L-norvalinamide], the inhibition in vivo at 30 mg/kg stood at 32%.
On the same count and under the same terms, the same measure for `CC(C)(C)C[C@H](NCC1CC1)C(=O)N[C@H]1CC[C@@H]2CN(c3cccc(C(F)(F)F)n3)C[C@@H]21` [Example 479, N^2-(cyclopropylmethyl)-4-methyl-N^1-{(3aR,4S,6aS)-2-[6-(trifluoromethyl)pyridin-2-yl]octahydrocyclopenta[c]pyrrol-4-yl}-L-leucinamide]: 40%.
